Results reported in patent publication US7951816B2, “Compound containing basic group and use thereof” (Ono Pharmaceutical Co., Ltd., priority 2004, dated 2011).

How the values were obtained:
[1] = biological target: T1, CXCR4 (Homo sapiens, UniProt P61073); test: Study for inhibition of binding human SDF-1 to CEM cells (125I-SDF-1); details: 125I-SDF-1 binding to CEM cells
T1 construct: a human T cell strain in which CXCR4 is known to be expressed; endogenous in cells; host or cells: CEM cells (human T cell line), whole cells
From the text: Specifically, as a system of screening a compound that inhibits the binding between SDF-1 and CXCR4, for example a system of measuring the binding between iodine-labeled SDF-1 and a human T cell strain in which CXCR4 is known to be expressed is operable. The identical idea is possible since macrophage (R5) HIV and RANTES, MIP-1α, and MIP-1β all bind to CCR5.
Study for Inhibition of Binding Human SDF-1 to CEM Cells
To human T cell strain CEM cells in a binding buffer (containing HEPES and BSA), the test compound and ^125I-SDF-1 (NEN) were added and the mixture was incubated at 4° C. for 60 minutes. The reacted CEM cells were rapidly filtrated with a GF/B membrane filter plate (Packard) to adsorb. The plate was washed with PBS three times and then dried. Microscint+20 (Packard) was added thereto. An amount of the radioactivity bound to the CEM cells was measured using Top Count (Packard) and inhibition (%) of the test compound was calculated according to the following equation: Inhibition={(Et−Ea)/(Et−Ec)}×100
Et: amount of radioactivity when the test compound is not added,
Ec: amount of radioactivity when non-radioactive SDF-1 (Pepro Tech) is added in an amount of 1000 times as much as ^125I-SDF-1 as a test compound, and
Ea: amount of radioactivity when the test compound is added.

[2] = Influence on blood pressure and heart rate in urethane-anesthetized rat, intravenous cumulative dosing; format: in vivo
From the text: Measuring of Influence of a Compound of the Present Invention on Blood Pressure and Heart Rate
A rat was anesthetized with urethane (1.2 g/kg subcutaneous administration). After neck midline dissection, a catheter for measuring blood pressure was inserted into a right common carotid artery. Then, after dissecting inguinal region, a catheter for chemical injection was inserted into a femoral vein and fixed. A catheter for measurement of blood pressure was connected to a pressure transducer and then the pressure waveform was recorded on a thermal writing pen recorder through an amplifier for strain compression (AP-641G (manufactured by NIHON KOHDEN CORPORATION)). In this case, regarding a heart rate, a value through an cardiotachometer (AT-601G (manufactured by NIHON KOHDEN CORPORATION)) using the pressure waveform obtained from the amplifier for strain compression as a trigger was recorded on a thermal writing pen recorder. The test compound was dissolved in a 10% solubilizing agent/physiological saline solution (volume ratio of polyoxyethylene hydroxystearate:propylene glycol:physiological saline=7:3:190) so as to adjust the concentration to 0.1, 0.3, 1, 3 or 10 mg/mL to prepare solutions. Each solution was intravenous administered at 1 mL/Kg through the […] over about 10 seconds. Accumulative administration of stepwise increasing of a dosage was carried out to an individual.

T1 sequence (P61073 whole entry): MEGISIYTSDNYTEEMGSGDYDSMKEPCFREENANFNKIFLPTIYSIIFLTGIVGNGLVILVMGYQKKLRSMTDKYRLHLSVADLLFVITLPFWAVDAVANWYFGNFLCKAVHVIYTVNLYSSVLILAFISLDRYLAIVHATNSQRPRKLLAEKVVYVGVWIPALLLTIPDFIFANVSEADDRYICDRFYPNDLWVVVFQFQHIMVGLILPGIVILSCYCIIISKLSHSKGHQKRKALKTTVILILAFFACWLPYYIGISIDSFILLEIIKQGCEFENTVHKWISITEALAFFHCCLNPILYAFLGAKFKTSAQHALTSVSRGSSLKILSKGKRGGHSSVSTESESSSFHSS

| Compound | IC50 [1] [µM] | effect of decreasing blood pressure ([2]; 3 mg/kg or less) | rate of increase in the heart rate ([2]; 10 mg/kg) [%] | influence on the heart rate ([2]; low dosage) |
| --- | --- | --- | --- | --- |
| CCCN(CCC)CCCCNCc1ccc(C(=O)N(Cc2ncc[nH]2)Cc2ncc[nH]2)cc1 [Compound 10, 4-({[4-(dipropylamino)butyl]amino}methyl)-N,N-bis(1H-imidazol-2-ylmethyl)benzamide] | 0.027 | – | – | – |
| CCCN(CCC)CCCCNCc1ccc(CN(Cc2ncc[nH]2)C(=O)c2ncc[nH]2)cc1 [Compound 19, N-[4-({[4-(dipropylamino)butyl]amino}methyl)benzyl]-N-(1H-imidazol-2-ylmethyl)-1H-imidazole-2-carboxamide] | – | not recognized | 2 | no influence on the heart rate |
